The structures appear in SMILES notation. Where a name gives a salt, the structure may show the parent alone. Read-outs that look alike come from different tables or passages of the source.

One assay concerns H460 cancer cells. The assay is described as follows: In vitro combination study with Compound 1, Cell Titer-Glo (ATP) cell viability, 72 h. Type of assay: cell-based. The settings on record: DNA damaging agent combined with Compound 1; 72 h.
The test system of another assay is COLO205 cancer cells. The assay is described as above. The settings on record: DNA damaging agent combined with Compound 1; 72 h. Type of assay: cell-based, human.
Another assay has as its system SW620 cancer cells. Described as above. Type of assay: cell-based. The settings on record: DNA damaging agent combined with Compound 1; 72 h.
In a further assay the test system is HCT116 cancer cells. The assay is described as above. Type of assay: cell-based. The settings on record: DNA damaging agent combined with Compound 1; 72 h.
The subject of another assay is SW48 cancer cells. The assay is described as above. It counts as cell-based. The settings on record: DNA damaging agent combined with Compound 1; 72 h.
Another assay relates to A549 cancer cells. The assay is described as above. Type of assay: cell-based.
For assay [1], the system named is pancreatic cancer (MIA-PACA-2) cell line. The assay can be described thus: In vitro combination study for selected compounds, additional cell lines. It counts as cell-based. The note with it: drug combined with Compound 1. As for the experimental part:
(§1) In vitro anti-proliferative effects of selected compounds were tested in additional cell lines, including ovarian cancer (SKOV3) and pancreatic cancer (MIA-PACA-2) cell lines.

In assay [2] the test system is ovarian cancer (SKOV3) cell line. Described as above. The settings on record: drug combined with Compound 1. It counts as cell-based. As for the experimental part: as §1
A further assay has as its system H-1650 (Lung). Described as above. It counts as cell-based. The settings on record: drug combined with Compound 1. As for the experimental part: as §1
The subject of assay [3] is PHTXM-79Es human primary esophagus cancer xenografts. The assay is described as follows: In vivo combination study, Patient Derived Xenograft. Further details: species or system mouse. The note with it: for Result (combination with Compound 1, tumor growth): Compound 1 60 mg/kg once daily Day 1-21; for antitumor activity: combined with Compound 1, PHTXM-79Es human primary esophagus cancer xenografts, FIG. 5B. As for the experimental part: (§2) To investigate in vivo antitumor activity of Compound 1 in combination with other agents, tests using Cell Derived Xenograft (CDX), Patient Derived Xenograft (PDX) and Syngeneic mouse tumor isograft model were conducted. Cells or Patient Derived Tumors were inoculated by one method of the following two methods (Method A and B) as shown Table 7.
(§3) Method A; Cells were maintained in either immune deficient nude mice or immune competent mice by subcutaneous inoculation of tumor cells at various concentrations into respected mice. Method B: Patient Derived Tumor s were maintained in nude mice by subcutaneous inoculation of tumor pieces (approx. 2×2×2 mm) into nude mice. Mice with tumor size of approximately 50 mm^3 (e.g., 40-75 mm^3) for syngeneic mouse studies or 200 mm^3 (e.g., 110-270 mm^3) for xenograft studies were randomly assigned to dose groups on the day (Day 0) before start date of dosing.
(§4) Compound 1 (crystalline form I) was suspended in 0.5 w/v % methylcellulose and administered orally to mice. Antibodies which administered in the experiment were described in Table 8.
(§5) Tumor size was measured by caliper and tumor volume was estimated using the equation V=(LW^2)/2, where L and W are tumor length and width, respectively and reported in cubic millimeters.
(§6) These values were compared across treatment groups to assess whether the differences in the trends over time were statistically significant. To compare pairs of treatment groups, the following mixed-effects linear regression model was fit to the data using the maximum likelihood method:
(§7) For synergy analyses, the observed differences in the log tumor values were used to calculate AUC values for each animal. In instances when an animal in a treatment group was removed from the study, the last observed tumor value was carried forward through all subsequent time points. The AUC for the control, or vehicle, group was calculated using the predicted values from the pairwise models described above. We defined a measure of synergy as follows:
(§8) where Ak and Bk are the k^th animal in the individual treatment groups and ABk is the k^th animal in combination treatment group. AUCcd is the model-predicted AUC for the control group and was treated as a constant with no variability. The standard error of the synergy score was calculated as the square root of the sum of squared standard errors across groups A, B, and AB. The degrees of freedom were estimated using the Welch-Satterthwaite equation. A hypothesis test was performed to determine if the synergy score differed from 0. P values were calculated by dividing the synergy score by its standard error and tested against a t-distribution (two-tailed) with the above-calculated degrees of freedom.
(§9) The effect was classified into four different categories. It was considered synergistic if the synergy score was less than 0 and additive if the synergy score wasn't statistically different from 0. If the synergy score was greater than zero, but the mean AUC for the combination was lower than the lowest mean AUC among the two single agent treatments, then the combination was sub-additive. If the synergy score was greater than zero, and the mean AUC for the combination was greater than the mean AUC for at least one of the single agent treatments, then the combination was antagonistic.

The subject of the next assay is PHTXM-90Es (Esophagus). The description is as above. Also on record: species or system mouse. The note with it: PHTXM-90Es (185 mm^3), Compound 1 60 mg/kg once daily Day 1-21. As for the experimental part: as §2, §3, §4, §5, §6, §7, §8, §9
For assay [4], the system named is PHTX-249Pa human primary pancreatic xenografts. The assay is described as above. Further details: species or system mouse. The note with it: PHTX-249Pa (195 mm^3). As for the experimental part:
as §2, §3, §4, §5, §6, §7, §8, §9

For a further assay, the system named is PHTXM-97Pa (Pancreatic). Described as above. Also on record: species or system mouse. The note with it: PHTXM-97Pa (180 mm^3). As for the experimental part:
as §2, §3, §4, §5, §6, §7, §8, §9

Assay [5] relates to PHTXM-35Es human primary esophagus cancer xenografts. The assay is described as above. Further details: species or system mouse. The settings on record: PHTXM-35Es (240 mm^3), Compound 1 60 mg/kg once daily Day 1-21. As for the experimental part: as §2, §3, §4, §5, §6, §7, §8, §9
A further assay concerns PHTX-09C (Colorectal). Described as above. The settings on record: PHTX-09C (155 mm^3). Also on record: species or system mouse.
Another assay concerns PHTX-11C. The assay is described as follows: In vivo combination study, xenograft. Also on record: species or system mouse. The note with it: PHTX-11C (270 mm^3).
A further assay concerns CALU6 (Lung). The assay is described as follows: In vitro combination study for selected compounds, additional cell lines. Type of assay: cell-based. The note with it: drug combined with Compound 1. As for the experimental part: as §1
Setting [6] is: drug 10 mg/kg intraperitoneally Days 1,5,9,13,17,21.
[7] abbreviates: Compound 1 20 mg/kg once daily Day 1-21, drug 5 mg/kg intraperitoneally Days 1,5,9,13,17,21.
[8] abbreviates: Compound 1 20 mg/kg once daily Day 1-21, drug 10 mg/kg intraperitoneally Days 1,5,9,13,17,21.
Where [9] appears, read: Compound 1 40 mg/kg once daily Day 1-21, drug 5 mg/kg intraperitoneally Days 1,5,9,13,17,21.
[10] abbreviates: Compound 1 40 mg/kg once daily Day 1-21, drug 10 mg/kg intraperitoneally Days 1,5,9,13,17,21.
Setting [11] is: Compound 1 40 mg/kg once daily Day 1-21, drug 15 mg/kg intravenously Days 1-3, 8-10, 15-17.
Setting [12] is: Compound 1 40 mg/kg once daily Day 1-21, drug 25 mg/kg intravenously Days 1-3, 8-10, 15-17.
[13] abbreviates: Compound 1 60 mg/kg once daily Day 1-21, drug 15 mg/kg intravenously Days 1-3, 8-10, 15-17.
Setting [14] is: Compound 1 60 mg/kg once daily Day 1-21, drug 25 mg/kg intravenously Days 1-3, 8-10, 15-17.
Setting [15] is: drug 25 mg/kg intravenously Days 1-3, 8-10, 15-17.
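For Call, anti-proliferative effect of combination with Compound 1, A549 in this document: Ten-by-ten dose matrices of the two agents in duplicate, compounds added 16 h post-plating, activity relative to DMSO vehicle wells, call reflects synergy evaluation from luminescence.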
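For Call, anti-proliferative effect of combination with Compound 1, COLO205 in this document: Ten-by-ten dose matrices of both agents in duplicate plus single-agent dilutions, luminescent ATP read-out, percent activity per well relative to DMSO vehicle wells, synergy call from these matrices.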
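For Call, anti-proliferative effect of combination with Compound 1, H460 in this document: Ten-by-ten dose matrices of both drugs alongside single-agent dilutions, luminescence read 72 hours after compound addition, percent activity per well versus vehicle (DMSO) plate controls.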
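For Call, anti-proliferative effect of combination with Compound 1, HCT116 in this document: combination call from 10×10 dose matrices in duplicate, graded by synergy, with percent activity per well relative to DMSO vehicle controls on the same plate.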
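For Call, anti-proliferative effect of combination with Compound 1, SW620 in this document: Ten-by-ten dose matrices of both drugs in 384-well plates, luminescent ATP read-out, synergy evaluated against single-agent and DMSO vehicle controls.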

Protocol for A549 cancer cells: (§10) Each combination pair was evaluated in an individual 384-well plate which contained variable doses of both compounds as single agents, as well as two, ten-by-ten matrices (in duplicate) that contained mixtures of the two test compounds. In brief, compounds were added to the cell test plates 16 hours after cell plating and then assessed for viability 72 hours later. Continuous cultures of tumor cells were maintained under standard cell culturing conditions (i.e. in a humidified chamber set at 37° C., containing atmosphere 5% carbon dioxide). […] Seventy-two hours after compound addition, ATP levels were measured to assess cell viability. Plating densities were chosen to ensure optimal linear growth over the 72 hour period.
(§11) Compound dilution and compound delivery to the assay plates were done on HighRes Robotic System (HighRes Biosolutions, Woburn, Mass., USA) with Echo™ Liquid Handler (Labcyte, Sunnyvale, Calif., USA). […] Next, these were used for compound transfer into cell assay plates. All wells were back-filled to give a constant percentage of DMSO.
(§12) The final DMSO concentration was held constant in all wells across the plate and was maintained at less than 0.5%. […] Cells treated with vehicle (DMSO) in two rows, or single compound serial dilutions in one plate columns/row served as the untreated control and single compound controls, respectively.
(§13) Compound activity in A549, COLO205, H460, HCT116, SW48, SW620 cancer cell lines was assessed using Cell Titer-Glo® (Promega [Madison, Wis., USA]). After 72 hours incubation, the plates were treated as per package insert protocol for the Promega Luminescence ATP Detection Systems. Briefly, 25 μL of cell lysis/substrate solution (provided in kit form) was added to each well and the plate was incubated at room temperature for 10 minutes. Luminescence was measured using a PHERAstar multi-label counter (BMG Labtech [Ortenberg, Germany]) or LEADseeker (GE Healthcare Life Sciences [Piscataway, N.J., USA]).
(§14) Numerical luminescence values were analyzed to generate EC50 curves and evaluate synergy. Raw Data reader files were uploaded along with automation workfiles that defined the plate and well contents. Percent activities were calculated for each well versus plate controls.
(§15) Each plate representing a single drug combination was analyzed separately. First, the viability measurements were normalized by scaling the data so that the median of the negative controls was 0 and the median of the positive controls was 100.
(§16) For the combination analysis, a response surface model was used to describe the relationship between the normalized viability and the drug concentrations. The data were fit to the model by minimizing the residual sum of squares. Based on the fitted response surface, plots of constant viability, called isobolograms, were produced.
(§17) The Combination Index and Nonlinear Blending were used as measures of drug synergy. To calculate Combination Index the 50% isobologram (which is the dose contour that has 50% viability) was used. […] A standard procedure was created to produce a call in order to characterize the viability effects for each combination (synergy, additivity, subadditivity, or antagonism). If the Combination Index existed then these measures were used to make the call.
Protocol for HCT116 cancer cells: as §10, §11, §12, §13, §14, §15, §16, §17
Protocol for SW48 cancer cells: as §10
Compound dilution and compound delivery to the assay plates were done on HighRes Robotic System (HighRes Biosolutions, Woburn, Mass., USA) with Echo™ Liquid Handler (Labcyte, Sunnyvale, Calif., USA). First, 384-well low dead volume (LDV) plates containing DMSO (Appendix B) and 10 mM compound stock solutions were used to create the required intermediate compound dilution plates. Next, these were used for compound transfer into cell assay plates. All wells were back-filled to give a constant percentage of DMSO.
as §12, §13, §14, §15, §16, §17
Protocol for SW620 cancer cells: as §10, §11, §12, §13, §14, §15, §16, §17

Take `CC[C@@]1(O)C(=O)OCc2c1cc1n(c2=O)Cc2cc3c(CN(C)C)c(O)ccc3nc2-1` [Topotecan hydrochloride]: the “Call, anti-proliferative effect of combination with Compound 1, H460” value with H460 cancer cells is on record as “Synergy (0 to 0.7)”. The “Call, anti-proliferative effect of combination with Compound 1, COLO205” value with COLO205 cancer cells is “Synergy (0 to 0.7)”. The “Call, anti-proliferative effect of combination with Compound 1, SW620” value in the assay on SW620 cancer cells is “Synergy (0 to 0.7)”. In addition, the “Call, anti-proliferative effect of combination with Compound 1, HCT116” value with HCT116 cancer cells was “Synergy (0 to 0.7)”. For the same compound, the “Call, anti-proliferative effect of combination with Compound 1, SW48” value with SW48 cancer cells is recorded as “Additivity (0.7 to 1.3)”. Further, the “Call, anti-proliferative effect of combination with Compound 1, A549” value in the assay with A549 cancer cells (DNA damaging agent combined with Compound 1, 72 h) is reported as “Synergy (0 to 0.7)”. Besides, the “In vitro combination effect with Compound 1, Pancreas MIA-PACA-2” value in assay [1] is “Additive”. Also, in assay [2], the “In vitro combination effect with Compound 1, Ovary SKOV3” value is recorded as “Additive”. In the assay on H-1650 (Lung), the “In vitro combination effect with Compound 1, Lung H-1650” value was “Additive”.
In the case of `CCc1c2c(nc3ccc(OC(=O)N4CCC(N5CCCCC5)CC4)cc13)-c1cc3c(c(=O)n1C2)COC(=O)[C@]3(O)CC` [Irinotecan (CPT-11), Irinotecan], the “Result (combination with Compound 1, tumor growth)” value (“Result” for short) in assay [3] (PHTXM-79Es (160 mm^3) FIG. 5B, drug 10 mg/kg intraperitoneally Days 1,5,9,13,17,21) is on record as “Additive”; in the assay with PHTXM-90Es (Esophagus) (setting [6]), “Synergistic”; in assay [4] (setting [7]), “Additive”; in assay [4] (setting [8]), “Additive”; in [4] (setting [9]), “Additive”; in [4] (setting [10]) it was “Additive”. For the same compound, the “Result” value with PHTXM-97Pa (Pancreatic) (setting [7]) is “Additive”; in the assay with PHTXM-97Pa (Pancreatic) (setting [8]) it was “Additive”; in the assay on PHTXM-97Pa (Pancreatic) (setting [9]), “subadditive”; in the assay with PHTXM-97Pa (Pancreatic) (setting [10]) it was “subadditive”; in [5] (setting [6]), “Additive”. In assay [3], the antitumor activity result is listed as “strong antitumor activity compared to either single treatment alone”.
`CCc1c2c(nc3ccc(O)cc13)-c1cc3c(c(=O)n1C2)COC(=O)[C@]3(O)CC` [SN-38]: the “Call, anti-proliferative effect of combination with Compound 1, H460” value in the assay on H460 cancer cells is on record as “Synergy (0 to 0.7)”. Besides, the “Call, anti-proliferative effect of combination with Compound 1, COLO205” value with COLO205 cancer cells was “Additivity (0.7 to 1.3)”. Further, the “Call, anti-proliferative effect of combination with Compound 1, SW620” value with SW620 cancer cells is “Synergy (0 to 0.7)”. Also, the “Call, anti-proliferative effect of combination with Compound 1, HCT116” value in the assay with HCT116 cancer cells is “Synergy (0 to 0.7)”. The “Call, anti-proliferative effect of combination with Compound 1, SW48” value in the assay with SW48 cancer cells is recorded as “Additivity (0.7 to 1.3)”. In addition, the “Call, anti-proliferative effect of combination with Compound 1, A549” value in the assay on A549 cancer cells is reported as “Synergy (key: Inconclusive: Any; Additivity: 0.7 to 1.3; Synergy: 0 to 0.7; Subadditivity: 1.3 to 2; Antagonism: >2)”. The “In vitro combination effect with Compound 1, Pancreas MIA-PACA-2” value in assay [1] is “Additive”. Also, in assay [2], the “In vitro combination effect with Compound 1, Ovary SKOV3” value is listed as “Additive”. In addition, in the assay on H-1650 (Lung), the “In vitro combination effect with Compound 1, Lung H-1650” value is reported as “Additive”.
For the compound `O=c1[nH]cc(F)c(=O)[nH]1` [Fluorouracil], the “Result” value in the assay on PHTX-09C (Colorectal) (setting [11]) is listed as “Additive”; with PHTX-09C (Colorectal) (setting [12]), “Additive”; with PHTX-09C (Colorectal) (setting [13]) it was “Additive”; with PHTX-09C (Colorectal) (setting [14]) it was “subadditive”; in [3] (PHTXM-79Es (160 mm^3), drug 25 mg/kg intravenously Days 1-3, 8-10, 15-17) it was “Synergistic”; in the assay on PHTX-11C (setting [11]) it was “Additive”. Moreover, the “Result” value was “Additive” with PHTX-11C (setting [12]); “Additive” in the assay on PHTX-11C (setting [13]); “subadditive” with PHTX-11C (setting [14]); “Additive” with PHTXM-90Es (Esophagus) (setting [15]); “Additive” in assay [5] (setting [15]). Besides, the antitumor activity entry in [3] is “strong antitumor activity compared to either single treatment alone”. The “In vitro combination effect with Compound 1, Pancreas MIA-PACA-2” value in assay [1] is on record as “Additive”. The “In vitro combination effect with Compound 1, Lung CALU6” value with CALU6 (Lung) is listed as “Synergy”. Besides, the “In vitro combination effect with Compound 1, Ovary SKOV3” value in assay [2] is on record as “Additive”. The “In vitro combination effect with Compound 1, Lung H-1650” value with H-1650 (Lung) is recorded as “Additive”.

The values above are taken from patent US20220323443A1, “COMBINATION THERAPY FOR CANCER TREATMENT” (TAKEDA PHARMACEUTICAL COMPANY LIMITED, priority 2019, published 2022).
